Assay results from patent US11266147B2, “Fungicidal oxadiazoles” (Bayer Aktiengesellschaft, priority 2017, dated 2022).

experiment: LogP by HPLC on reversed phase columns (EEC directive 79/831 Annex V.A8); format: physicochemical; details: method [a]: LC-UV, acidic range, 0.1% formic acid in water and acetonitrile, linear gradient 10% to 95% acetonitrile
Experimental: [table] If more than one LogP value is available within the same method, all the values are given and separated by “+”. Calibration was done with straight-chain alkan2-ones (with 3 to 16 carbon atoms) with known LogP values (measurement of LogP values using retention times with linear interpolation between successive alkanones). Lambda-max-values were determined using UV-spectra from 200 nm to 400 nm and the peak values of the chromatographic signals.

Row | Compound | LogP
1 | FC(F)(Cl)c1nc(-c2cnc(Nc3ccccc3Cl)nc2)no1 [Compound I-77] | 4.46^[a]
2 | FC(F)(Cl)c1nc(-c2cnc(NC3CC3)nc2)no1 [Compound I-27] | 2.76^[a]
3 | FC(F)(F)c1nc(-c2cnc(Nc3ccsc3)nc2)no1 [Compound I-58] | 3.70^[a]
4 | FC(F)(F)c1nc(-c2cnc(NC3(c4ccccc4)CC3)nc2)no1 [Compound I-17] | 3.74^[a]
5 | FC(F)(F)c1cccc(Nc2ncc(-c3noc(C(F)(F)F)n3)cn2)c1 [Compound I-53] | 4.46^[a]
6 | FC(F)(F)c1nc(-c2cnc(Nc3ccc(S(F)(F)(F)(F)F)cc3)nc2)no1 [Compound I-55] | 4.80^[a]
7 | FC(F)(Cl)c1nc(-c2cnc(Nc3ccc(Cl)cc3)nc2)no1 [Compound I-67] | 4.56^[a]
8 | FC(F)(F)Oc1ccccc1Nc1ccc(-c2noc(C(F)(F)F)n2)cc1 [Compound I-39] | 5.11^[a]
9 | FC(F)(Cl)c1nc(-c2cnc(Nc3ccccc3)nc2)no1 [Compound I-71] | 3.96^[a]
10 | FC(F)(Cl)c1nc(-c2cnc(NC3CC3C(F)(F)F)nc2)no1 (stereo not shown) [Compound I-09] | 3.65^[a]
11 | FC(F)(Cl)c1nc(-c2cnc(Nc3ccc(S(F)(F)(F)(F)F)cc3)nc2)no1 [Compound I-83] | 5.00^[a]
12 | FC(F)(F)c1nc(-c2cnc(NC3CC3C(F)(F)F)nc2)no1 (stereo not shown) [Compound I-21] | 3.46^[a]
13 | FC1(F)CC(Nc2ncc(-c3noc(C(F)(F)Cl)n3)cn2)C1 [Compound I-18] | 3.48^[a]
14 | Fc1ccc(Nc2ncc(-c3noc(C(F)(F)Cl)n3)cn2)cc1 [Compound I-72] | 3.99^[a]
15 | CC(=O)N1CCC(Nc2ncc(-c3noc(C(F)(F)F)n3)cn2)CC1 [Compound I-13] | 2.17^[a]
16 | COc1cc(Nc2ncc(-c3noc(C(F)(F)Cl)n3)cn2)ccc1C [Compound I-81] | 4.51^[a]
17 | FC(F)(F)c1nc(-c2cnc(Nc3cccc(Cl)c3)nc2)no1 [Compound I-46] | 4.34^[a]
18 | FC(F)(Cl)c1nc(-c2cnc(NC3CCOCC3)nc2)no1 [Compound I-15] | 2.76^[a]
19 | N#CCc1ccc(Nc2ncc(-c3noc(C(F)(F)Cl)n3)cn2)cc1 [Compound I-84] | 3.46^[a]
20 | N#Cc1cccc(Nc2ncc(-c3noc(C(F)(F)F)n3)cn2)c1 [Compound I-51] | 3.52^[a]
21 | FC(F)(F)c1nc(-c2cnc(NC3CCOCC3)nc2)no1 [Compound I-16] | 2.57^[a]

Row | Compound | LogP
22 | COc1cc(Nc2ncc(-c3noc(C(F)(F)F)n3)cn2)ccc1C [Compound I-52] | 4.30^[a]
23 | CC(=O)Nc1cccc(Nc2ncc(-c3noc(C(F)(F)Cl)n3)cn2)c1 [Compound I-74] | 2.75^[a]
24 | FC(F)(F)c1nc(-c2cnc(NC3(c4ccccn4)CCC3)nc2)no1 [Compound I-23] | 1.96^[a]
25 | CC(=O)N1CCC(Nc2ncc(-c3noc(C(F)(F)Cl)n3)cn2)CC1 [Compound I-20] | 2.32^[a]
26 | FC(F)(F)c1cccc(Nc2ncc(-c3noc(C(F)(F)Cl)n3)cn2)c1 [Compound I-85] | 4.69^[a]
27 | COc1ccccc1Nc1ncc(-c2noc(C(F)(F)F)n2)cn1 [Compound I-54] | 4.18^[a]
28 | Fc1cccc(Nc2ncc(-c3noc(C(F)(F)F)n3)cn2)c1 [Compound I-44] | 3.94^[a]
29 | FC(F)Oc1ccc(Nc2ncc(-c3noc(C(F)(F)Cl)n3)cn2)cc1 [Compound I-69] | 4.11^[a]
30 | FC(F)(F)c1nc(-c2cnc(Nc3cccc4c3CCC4)nc2)no1 [Compound I-60] | 4.44^[a]
31 | Fc1ccc(Nc2ncc(-c3noc(C(F)(F)F)n3)cn2)c(F)c1 [Compound I-42] | 3.70^[a]
32 | O=S1(=O)CCC(Nc2ncc(-c3noc(C(F)(F)F)n3)cn2)C1 (stereo not shown) [Compound I-22] | 2.15^[a]
33 | COc1ccc(Nc2ncc(-c3noc(C(F)(F)F)n3)cn2)cc1 [Compound I-59] | 3.57^[a]
34 | FC(F)(F)c1cccc(Nc2ccc(-c3noc(C(F)(F)F)n3)cc2)c1 [Compound I-36] | 5.08^[a]
35 | COc1ccc(Nc2ncc(-c3noc(C(F)(F)Cl)n3)cn2)cc1 [Compound I-66] | 3.79^[a]
36 | FC(F)(F)c1nc(-c2cnc(NC3CC3)nc2)no1 [Compound I-31] | 2.57^[a]
37 | FC(F)(Cl)c1nc(-c2cnc(NC3CCOC3)nc2)no1 (stereo not shown) [Compound I-11] | 2.55^[a]
38 | FC(F)(Cl)c1nc(-c2cnc(Nc3ccon3)nc2)no1 [Compound I-64] | 2.71^[a]
39 | FC(F)(F)c1nc(-c2cnc(Nc3ccccc3)nc2)no1 [Compound I-61] | 3.74^[a]
40 | Cc1ccnc(Nc2ccc(-c3noc(C(F)(F)Cl)n3)cc2)n1 [Compound I-40] | 2.98^[a]
41 | Cn1ccnc1Nc1ncc(-c2noc(C(F)(F)F)n2)cn1 [Compound I-88] | 1.08^[a]
42 | Cc1cccc(Nc2ncc(-c3noc(C(F)(F)F)n3)cn2)c1 [Compound I-56] | 4.13^[a]

Row | Compound | LogP
43 | CC(=O)Nc1cccc(Nc2ncc(-c3noc(C(F)(F)F)n3)cn2)c1 [Compound I-50] | 2.59^[a]
44 | Fc1cccc(Nc2ncc(-c3noc(C(F)(F)Cl)n3)cn2)c1 [Compound I-76] | 4.18^[a]
45 | FC(F)(F)c1nc(-c2cnc(Nc3ccc4c(c3)OCO4)nc2)no1 [Compound I-49] | 3.50^[a]
46 | Fc1ccccc1Nc1ncc(-c2noc(C(F)(F)Cl)n2)cn1 [Compound I-41] | 3.94^[a]
47 | FC(F)(Cl)c1nc(-c2cnc(Nc3cccc4c3CCC4)nc2)no1 [Compound I-73] | 4.69^[a]
48 | FC(F)(Cl)c1nc(-c2cnc(NC3Cc4ccccc4C3)nc2)no1 [Compound I-19] | 4.49^[a]
49 | FC(F)(Cl)c1nc(-c2cnc(NC3=NCCS3)nc2)no1 [Compound I-33] | 1.26^[a]
50 | FC(F)(Cl)c1nc(-c2cnc(NC3CCCC3)nc2)no1 [Compound I-28] | 4.08^[a]
51 | FC(F)Oc1ccc(Nc2ncc(-c3noc(C(F)(F)F)n3)cn2)cc1 [Compound I-43] | 3.92^[a]
52 | CC1(Nc2ncc(-c3noc(C(F)(F)Cl)n3)cn2)CC1 [Compound I-14] | 3.25^[a]
53 | COc1cccc(Nc2ncc(-c3noc(C(F)(F)F)n3)cn2)c1 [Compound I-45] | 3.76^[a]
54 | FC(F)(Cl)c1nc(-c2cnc(Nc3ccc4c(c3)OCO4)nc2)no1 [Compound I-70] | 3.72^[a]
55 | FC(F)(Cl)c1nc(-c2cnc(Nc3ccc4ncccc4c3)nc2)no1 [Compound I-90] | 2.13^[a]
56 | FC(F)(F)c1nc(-c2cnc(Nc3ccc(Cl)cc3)nc2)no1 [Compound I-62] | 4.34^[a]
57 | O=S1(=O)CCC(Nc2ncc(-c3noc(C(F)(F)Cl)n3)cn2)C1 (stereo not shown) [Compound I-30] | 2.32^[a]
58 | FC(F)(Cl)c1nc(-c2cnc(NC3(c4ccccc4)CC3)nc2)no1 [Compound I-29] | 3.94^[a]
59 | FC(F)(Cl)c1nc(-c2cnc(Nc3ccsc3)nc2)no1 [Compound I-65] | 3.92^[a]
60 | FC(F)(F)c1nc(-c2cnc(Nc3ccon3)nc2)no1 [Compound I-57] | 2.50^[a]
61 | CC1(Nc2ncc(-c3noc(C(F)(F)F)n3)cn2)CC1 [Compound I-25] | 3.04^[a]
62 | FC(F)(F)c1nc(-c2cnc(NC3=NCCS3)nc2)no1 [Compound I-34] | 1.08^[a]
63 | FC(F)(Cl)c1nc(-c2cnc(Nc3nc4c(s3)CCC4)nc2)no1 [Compound I-89] | 4.03^[a]

Row | Compound | LogP
64 | FC(F)(Cl)c1nc(-c2cnc(NC3(c4ccccn4)CCC3)nc2)no1 [Compound I-24] | 2.13^[a]
65 | N#CCc1ccc(Nc2ncc(-c3noc(C(F)(F)F)n3)cn2)cc1 [Compound I-48] | 3.27^[a]
66 | FC(F)(F)c1nc(-c2cnc(Nc3ccccc3Cl)nc2)no1 [Compound I-47] | 4.20^[a]
67 | FC(F)(Cl)c1nc(-c2cnc(Nc3cccc(Cl)c3)nc2)no1 [Compound I-79] | 4.56^[a]
68 | FC(F)(F)c1nc(-c2cnc(NC3CCOC3)nc2)no1 (stereo not shown) [Compound I-10] | 2.35^[a]
69 | CN(c1ncc(-c2noc(C(F)(F)Cl)n2)cn1)C1CCCC1 [Compound I-12] | 5.42^[a]
70 | COc1ccccc1Nc1ncc(-c2noc(C(F)(F)Cl)n2)cn1 [Compound I-78] | 4.41^[a]
71 | Cc1ccnc(Nc2ccc(-c3noc(C(F)(F)F)n3)cc2)n1 [Compound I-06] | 3.83^[a]
72 | Fc1ccc(Nc2ncc(-c3noc(C(F)(F)Cl)n3)cn2)c(F)c1 [Compound I-75] | 3.92^[a]
73 | FC(F)(F)c1nc(-c2cnc(NC3Cc4ccccc4C3)nc2)no1 [Compound I-26] | 4.27^[a]
74 | COc1cccc(Nc2ncc(-c3noc(C(F)(F)Cl)n3)cn2)c1 [Compound I-80] | 3.96^[a]
75 | FC(F)(F)c1nc(-c2ccc(Nc3ccc(Cl)cc3)cc2)no1 [Compound I-38] | 5.00^[a]
76 | FC(F)(F)c1nc(-c2cnc(Nc3ccc4ncccc4c3)nc2)no1 [Compound I-87] | 1.98^[a]
77 | FC(F)(F)c1nc(-c2cnc(NC3CCCC3)nc2)no1 [Compound I-08] | 3.83^[a]
78 | FC(F)(F)c1nc(-c2cnc(Nc3nc4c(s3)CCC4)nc2)no1 [Compound I-86] | 3.81^[a]
79 | FC(F)(F)c1nc(-c2ccc(Nc3ccccc3)cc2)no1 [Compound I-37] | 4.56^[a]
80 | Cc1cccc(Nc2ccc(-c3noc(C(F)(F)F)n3)cc2)c1 [Compound I-35] | 4.93^[a]
81 | N#Cc1cccc(Nc2ncc(-c3noc(C(F)(F)Cl)n3)cn2)c1 [Compound I-82] | 3.72^[a]

same assay, conditions: reversed phase HPLC column; method [a]: LC-UV, acidic range, 0.1% formic acid in water and acetonitrile, linear gradient 10% to 95% acetonitrile

Row | Compound | chromatographic logP
82 | CC(=O)N(c1ncc(-c2noc(C(F)(F)F)n2)cn1)c1ccccc1F [Compound I-07, N-(2-fluorophenyl)-N-{5-[5-(trifluoromethyl)-1,2,4-oxadiazol-3-yl]pyrimidin-2-yl}acetamide] | 3.23
